Key:
[1] = system: Neutrophil elastase activity in U937 cells; assay: Neutrophil elastase activity in U937 cytosolic lysate after incubation with test compound; format: cell-based; details: Homo sapiens, U-937, U937 cells incubated 48 hours with compound, read-out: Reduction of NE-activity in U937 cells IC50
Procedure: Determination of Neutrophil Elastase Activity in U937 Cytosolic Lysate Preparation after Incubation with Test Compound
Optiplate 384F were purchased from PerkinElmer (Prod. No. #6007270). 24well Nunclon cell culture plates (No. 142475) and 96well plates (No. 267245) were from Nunc. Dimethylsulfoxid (DMSO) was from Sigma (Prod. No. D8418). Nonidet-P40 (NP40) was from USBiological (Prod. No. N3500)
Substrate, specific for Neutrophil elastase, was from Bachem (MeOSuc-Ala-Ala-Pro-Val-AMC; Prod. No. I-1270).
Human neutrophil elastase was from Calbiochem (Prod. No. 324681)
Tris-buffer (100 mM Tris; 1M NaCL; pH 7.5)
Tris-buffer+HSA 0.1%; Human Serum Albumin from Calbiochem (Cat#. 126658)
Serine-protease buffer (20 mM Tris; 100 mM NaCL; pH 7.5)+0.1% HSA
Serine protease lysis buffer: 20 mM Tris-HCL; 100 mM NaCl pH 7.5; +0.2% Nonidet-P40;
PBS: phosphate buffered saline, without Ca and Mg, from Gibco
U937 from ECACC (Cat. No. 85011440) cultured in suspension at 37° C. and 5% CO2.
Cell density: 0.2-1 Mio. Cells/ml.
Medium: RPMI1640 GlutaMAX (No. 61870) with 10% FCS from Gibco
Cell Seeding and Treatment:
Compounds in 100% DMSO were diluted in Medium (—FCS) with 10% DMSO and further diluted according to the experiment planned.
20 μl of the compound solution was transferred in the respective wells of the 24 well plate and diluted with 2 ml cell suspension/well containing […] (final concentration of DMSO=0.1%). Compound dilution factor=100
Compounds (up to 7 concentrations) were tested in triplicates with 3 wells for the DMSO 0.1% control, incubatet for 48 hours without medium change at 37° C., 5% CO2 and 95% relative humidity.
Cell Harvesting and Cell Lysate:
Transfer the cell suspension in 2.2 ml Eppendorf cups. Separate cells from medium by centrifugation (400×g; 5 min; RT); discard the supernatant. Resuspend in 1 ml PBS; centrifugation (400×g; 5 min; RT); wash cells twice with PBS. Add 100 μl Serin lysis buffer (ice cold) to the cell pellet; resuspend the pellet and store on ice for 15 minutes. Remove debris by centrifugation at 15000×g for 10 min at 4° C. Transfer 80-100 μl lysate supernatant in 96well plate and store immediately at −80° C.
Neutrophil Elastase Activity Assay:
Frozen lysates were thawn at 37° C. for 10 minutes and stored on ice. Protein content was determined with Bradford protein assay. Lysates were diluted to 0.2-0.5 mg/ml protein in serine protease buffer+HSA.
Standard: NE ([…] stocksolution in Tris-buffer; stored at −80° C.) was diluted in Tris-buffer+HSA to 750 ng/ml, and further serially diluted 1:2 for the standard curve.
Buffer, blank, standard and lysate samples were transferred into 384 well plate
Blank: 5 μl Tris-buffer+10 μl Tris-buffer+HSA+5 μl Substrate
Standard: 5 μl Tris-buffer+10 μl NE (diff.conc.)+5 μl Substrate
Lysate: 5 μl Tris-buffer+10 μl Lysat+5 μl Substrate
The increase in fluorescence (Ex360 nm/Em 460 nm) is determined over 30 minutes with a Molecular Device Spectramax M5 Fluorescence Reader. Kinetic Reduction (Vmax units/sec); 4 vmax points. The amount of neutrophil elastase (ng/ml) is calculated using the standard curve and the Spectramax software. The result is interpolated to ng/mg lysate protein using excel formula functions. Percent inhibition in the compound-treated lysate samples is calculated relative to the DMSO-treated control-sample (100−(compound-sample*100)/control-sample)
IC50 is calculated using Graphpad Prism; nonlinear fitting (log(inhibitor) vs. response—Variable slope).

[2] = Metabolic stability with human liver microsomes; format: in vitro ADME; details: pH 7.6; pooled human liver microsomes, 37° C., 1 μM test compound, 1 mg/ml protein, NADPH; read-out: In vitro stability in human liver microsome incubations t½
Procedure: Determination of Metabolic Stability with Human Liver Microsomes
The metabolic degradation of the test compound is assayed at 37° C. with pooled human liver microsomes. The final incubation volume of 100 μl per time point contains TRIS buffer pH 7.6 (0.1 M), magnesium chloride (5 mM), microsomal protein (1 mg/ml) and the test compound at a final concentration of 1 μM. Following a short preincubation period at 37° C., the reactions are initiated by addition of beta-nicotinamide adenine dinucleotide phosphate, reduced form (NADPH, 1 mM) and terminated by transferring an aliquot into acetonitrile after different time points. Additionally, the NADPH-independent degradation is monitored in incubations without NADPH, terminated at the last time point. The [%] remaining test compound after NADPH independent incubation is reflected by the parameter c(control) (metabolic stability). The quenched incubations are pelleted by centrifugation (10,000 g, 5 min). An aliquot of the supernatant is assayed by LC-MS/MS for the amount of parent compound.
The half-life (t½ INVITRO) is determined by the slope of the semilogarithmic plot of the concentration-time profile. The intrinsic clearance (CL_[…]) is calculated by considering the amount of protein in the incubation: CL_[…][μl/min/mg protein]=(ln 2/(half-life[min]*protein content[mg/ml]))*1,000.

recombinant human DPPI = recombinant human DPPI (Homo sapiens (Human), UniProt P53634); assay: Inhibition of Human DPPI (Cathepsin C); format: biochemical; details: substrate Gly-Arg-AMC, 30 min room temperature
Text: Inhibition of Human DPPI (Cathepsin C)
Materials: Microtiterplates (Optiplate-384 F) were purchased from PerkinElmer (Prod. No. 6007270). The substrate Gly-Arg-AMC was from Biotrend (Prod.-No. 808756 Custom peptide). Bovine serum albumin (BSA; Prod. No. A3059) and Dithiothreitol (DTT; Prod. No D0632) were from Sigma. TagZyme buffer was from Riedel-de-Haen (Prod.-No. 04269), NaCl was from Merck (Prod.-No. 1.06404.1000) and morpholinoethane sulfonic acid (MES), was from Serva (Prod.-No. 29834). The DPP1 inhibitor Gly-Phe-DMK was purchased from MP Biomedicals (Prod.-No. 03DK00625). The recombinant human DPPI was purchased from Prozymex. All other materials were of highest grade commercially available.
The following buffers were used: MES buffer: 25 mM MES, 50 mM NaCl, 5 mM DTT, adjusted to pH 6.0, containing 0.1% BSA; TAGZyme Buffer: 20 mM NaH2PO4, 150 mM NaCl adjusted to pH 6.0 with HCl
The recombinant human DPPI was diluted in TAGZyme buffer to 1 U/ml (38.1 μg/ml, respectively), and then activated by mixing in a 1:2 ratio with a Cysteamine aqueous solution (2 mM) and incubating for 5 min at room temperature.
Five uL test compound (final concentration 0.1 nM to 100 μM) in aqua bidest (containing 4% DMSO, final DMSO concentration 1%) were mixed with 10 μL of DPPI in MES buffer (final concentration 0.0125 ng/μL) and incubated for 10 min. Then, 5 μL of substrate in MES buffer (final concentration 50 μM) were added. The microtiter plates were then incubated at room temperature for 30 min. Then, the reaction was stopped by adding 10 μL of Gly-Phe-DMK in MES-buffer (final concentration 1 μM). The fluorescence in the wells was determined using a Molecular Devices SpectraMax M5 Fluorescence Reader (Ex 360 nm, Em 460 nm) or an Envision Fluorescence Reader (Ex 355 nm, Em 460 nm).
Each assay microtiter plate contained wells with vehicle controls (1% DMSO in bidest+0.075% BSA) as reference for non-inhibited enzyme activity (100% Ctl; high values) and wells with inhibitor (Gly-Phe-DMK, in bidest+1% DMSO+0.075% BSA, final concentration 1 μM) as controls for background fluorescence (0% Ctl; low values).
The analysis of the data was performed by calculating the percentage of fluorescence in the presence of test compound in comparison to the fluorescence of the vehicle control after subtracting the background fluorescence using the following formula: (RFU(sample)−RFU(background))*100/(RFU(control)−RFU(background))
Data from these calculations were used to generate IC50 values for inhibition of DPPI, respectively.

[3] = target: recombinant human Cathepsin K (Homo sapiens (Human), UniProt P43235); assay: Inhibition of Human Cathepsin K; format: biochemical; details: substrate Z-Gly-Pro-Arg-AMC, 60 min room temperature
Text: Inhibition of Human Cathepsin K Materials: Microtiterplates (Optiplate-384 F were purchased from PerkinElmer (Prod. No. 6007270). The substrate Z-Gly-Pro-Arg-AMC was from Biomol (Prod.-No. P-142). L-Cysteine (Prod. No. 168149) was from Sigma. Sodium actetate was from Merck (Prod.-No. 6268.0250), EDTA was from Fluka (Prod.-No. 03680). The inhibitor E-64 was purchased from Sigma (Prod.-No. E3132). The recombinant human Cathepsin K proenzyme was purchased from Biomol (Prod. No. SE-367). All other materials were of highest grade commercially available.
The following buffers were used: Activation buffer: 32.5 mM sodium acetate, adjusted to pH 3.5 with HCl; Assay buffer: 150 mM sodium acetate, 4 mM EDTA, 20 mM L-Cysteine, adjusted to pH 5.5 with HCl,
To activate the proenzyme, 5 μl procathepsin K were mixed with 1 ul activation buffer, and incubated at room temperature for 30 min.
5 μL test compound (final concentration 0.1 nM to 100 μM) in aqua bidest (containing 4% DMSO, final DMSO concentration 1%) were mixed with 10 uL of Cathepsin K in assay buffer (final concentration 2 ng/μL) and incubated for 10 min. Then 5 μL of substrate in assay buffer (final concentration 12.5 μM) were added. The plates were then incubated at room temperature for 60 min. Then, the reaction was stopped by adding 10 μL of E64 in assay buffer (final concentration 1 μM). The fluorescence in the wells was determined using a Molecular Devices SpectraMax M5 Fluorescence Reader (Ex 360 nm, Em 460 nm).
Each assay microtiter plate contains wells with vehicle controls (1% DMSO in bidest) as reference for non-inhibited enzyme activity (100% Ctl; high values) and wells with inhibitor (E64 in bidest+1% DMSO, final concentration 1 μM) as controls for background fluorescence (0% Ctl; low values). The analysis of the data was performed by calculating the percentage of fluorescence in the presence of test compound in comparison to the fluorescence of the vehicle control after subtracting the background fluorescence: (RFU(sample)−RFU(background))*100/(RFU(control)−RFU(background))
Data from these calculations were used to generate IC50 values for inhibition of Cathepsin K, respectively.

Chain of recombinant human DPPI (P53634 231-394): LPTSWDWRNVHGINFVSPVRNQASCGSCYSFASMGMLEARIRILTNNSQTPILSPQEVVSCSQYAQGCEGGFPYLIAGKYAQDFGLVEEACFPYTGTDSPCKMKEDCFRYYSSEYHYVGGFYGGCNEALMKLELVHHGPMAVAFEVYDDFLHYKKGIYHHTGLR
Chain of recombinant human DPPI (P53634 395-463): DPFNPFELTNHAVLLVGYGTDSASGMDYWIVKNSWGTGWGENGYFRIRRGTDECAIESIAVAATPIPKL
Chain of recombinant human DPPI (P53634 25-134): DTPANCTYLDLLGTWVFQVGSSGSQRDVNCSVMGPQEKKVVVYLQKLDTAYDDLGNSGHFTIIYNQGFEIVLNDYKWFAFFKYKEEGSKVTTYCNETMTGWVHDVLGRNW
Chain of recombinant human Cathepsin K (P43235 115-329): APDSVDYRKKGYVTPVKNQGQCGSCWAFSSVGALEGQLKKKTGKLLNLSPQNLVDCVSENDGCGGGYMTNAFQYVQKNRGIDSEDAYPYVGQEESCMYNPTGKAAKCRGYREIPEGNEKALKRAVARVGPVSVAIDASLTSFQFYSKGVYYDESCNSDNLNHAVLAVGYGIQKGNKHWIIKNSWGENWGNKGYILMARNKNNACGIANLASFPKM

Row | IC50 [1] [nM] | half-life at 1 μM [2] [h] | IC50 (recombinant human DPPI) [nM] | IC50 [3] [nM] | SMILES
1 | 64 | > 2.17 | – | – | CS(=O)(=O)c1cc(-c2ccc(C[C@@H](C#N)NC(=O)C34CCC(CC3)CN4)c(F)c2)ccc1C#N [Example 1]
2 | – | – | 50.3 | > 30000 | CN1C(=O)Cc2ccc(-c3ccc(C[C@@H](C#N)NC(=O)[C@@]45CCO[C@@H](CN4)C5)cc3)cc21 [Example 5]
3 | – | – | 202 | – | CS(=O)(=O)c1cc(-c2ccc(C[C@@H](C#N)NC(=O)[C@@]34CCO[C@@H](CN3)C4)cc2)ccc1C#N [Example 6]
4 | – | – | 204 | – | CN1C(=O)Cc2ccc(-c3ccc(C[C@@H](C#N)NC(=O)[C@]45CC[C@@H](CN4)C5)cc3)cc21 [Example 7]
5 | – | – | 221 | – | CN1C(=O)Cc2ccc(-c3ccc(C[C@@H](C#N)NC(=O)[C@@]45CC[C@H](CN4)C5)cc3)cc21 [Example 8]
6 | – | – | 228 | – | CN1C(=O)Cc2ccc(-c3ccc(C[C@@H](C#N)NC(=O)C45CCOC(CCN4)C5)cc3)cc21 (stereo partly drawn) [Example 9]
7 | – | – | 283 | – | CS(=O)(=O)c1cc(-c2ccc(C[C@@H](C#N)NC(=O)[C@@]34CC[C@H](CN3)C4)cc2)ccc1C#N [Example 10]
8 | – | – | 428 | – | CN1C(=O)Cc2ccc(-c3ccc(C[C@@H](C#N)NC(=O)[C@]45CCC[C@@H](CN4)C5)cc3)cc21 [Example 12]
9 | – | – | 650 | – | CS(=O)(=O)c1cc(-c2ccc(C[C@@H](C#N)NC(=O)[C@]34CC[C@@H](CN3)C4)cc2)ccc1C#N [Example 14]
10 | – | – | 1220 | – | CS(=O)(=O)c1cc(-c2ccc(C[C@@H](C#N)NC(=O)[C@]34CCC[C@@H](CN3)C4)cc2)ccc1C#N [Example 16]
11 | 74 | > 2.17 | 15 | – | CS(=O)(=O)c1ccc(-c2ccc(C[C@@H](C#N)NC(=O)C34CCC(CC3)CN4)c(F)c2)cc1C#N [Example 18]
12 | – | – | 38.1 | – | CN1Cc2ccc(-c3ccc(C[C@@H](C#N)NC(=O)C45CCC(CC4)CN5)c(F)c3)cc2C1 [Example 19]
13 | 114 | > 2.17 | 11.2 | – | N#C[C@H](Cc1ccc(-c2cccc(C(N)=O)c2)cc1F)NC(=O)C12CCC(CC1)CN2 [Example 24]
14 | – | – | 40.7 | – | CN1C(=O)C(C)(C)c2ccc(-c3ccc(C[C@@H](C#N)NC(=O)C45CCC(CC4)CN5)c(F)c3)cc21 [Example 25]
15 | 58 | > 2.17 | 20.2 | – | N#C[C@H](Cc1ccc(-c2cnn(CC3CCOCC3)c2)cc1F)NC(=O)C12CCC(CC1)CN2 [Example 29]
16 | – | 0.417 | 6.7 | – | CN(C)S(=O)(=O)c1cccc(-c2ccc(C[C@@H](C#N)NC(=O)C34CCC(CC3)CN4)c(F)c2)c1 [Example 30]

Row | SMILES | IC50 [1] [nM] | half-life at 1 μM [2] [h] | IC50 (recombinant human DPPI) [nM] | IC50 [3] [nM]
17 | N#Cc1ccc(-c2ccc(C[C@@H](C#N)NC(=O)C34CCC(CC3)N4)cc2)cc1F [Example 11] | – | > 2.17 | 284 | –

From patent US8889708B2 (Boehringer Ingelheim International GmbH, priority 2013, dated 2014)
